Experimental data as given in patent US8653041B2, “Antibacterial aminoglycoside analogs” (Achaogen, Inc., priority 2010, dated 2014).

How the values were obtained:
Acinetobacter baumannii = assay: MIC, CLSI broth microdilution, Acinetobacter baumannii panel; type: cell-based
How it was run: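 CLSI M7-A7 broth microdilution in Mueller Hinton Broth, inoculum 5×10^5 CFU/mL, 20 h at 35 C in ambient air. Panel of 29 A. baumannii isolates, 24 clinical carrying aminoglycoside-modifying enzymes or perm/efflux mechanisms and 5 susceptible.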

[1] = 14-day rat toxicology (nephrotoxicity), once-daily subcutaneous injection; conditions: once daily, 14 days, Sprague-Dawley rat
Protocol: The study design utilized once-daily subcutaneous injection administration to the rat for 14 days and assessment of reversibility of any changes following a 28-day recovery period.
The dose volume administered to each animal was 1 mL/kg.

Pseudomonas aeruginosa = assay: MIC, CLSI broth microdilution, Pseudomonas aeruginosa panel; type: cell-based
How it was run: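 Reference CLSI broth microdilution: two-fold compound dilutions in Mueller Hinton Broth, mixed 1:1 with inoculum to final 5×10^5 CFU/mL. Incubated 20 h at 35 C in ambient air. Panel of 27 isolates: 22 clinical strains carrying aminoglycoside-modifying enzymes or perm/efflux resistance, 5 susceptible.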

**Q.** Which MIC (Acinetobacter baumannii; A. baumannii clinical strain 1 (resistant clinical isolate)) does the source give for gentamicin here?
**A.** E (MIC's greater than or equal to 32.0 μg/mL = E)

**Q.** What about the MIC (Acinetobacter baumannii; A. baumannii clinical strain 2 (resistant clinical isolate)) of the same substance?
**A.** E (MIC's greater than or equal to 32.0 μg/mL = E)

**Q.** And the MIC (Acinetobacter baumannii; A. baumannii clinical strain 3 (resistant clinical isolate))?
**A.** C (MIC's greater than or equal to 8 μg/mL and lower than 16.0 μg/mL = C)

**Q.** What about the MIC (Acinetobacter baumannii; A. baumannii clinical strain 4 (resistant clinical isolate)) of the same substance?
**A.** E (MIC's greater than or equal to 32.0 μg/mL = E)

**Q.** What about the MIC (Acinetobacter baumannii; A. baumannii clinical strain 5 (resistant clinical isolate)) of the same substance?
**A.** E (MIC's greater than or equal to 32.0 μg/mL = E)

**Q.** What about the MIC (Acinetobacter baumannii; A. baumannii clinical strain 6 (resistant clinical isolate)) of the same substance?
**A.** E (MIC's greater than or equal to 32.0 μg/mL = E)

**Q.** And the MIC (Acinetobacter baumannii; A. baumannii clinical strain 7 (resistant clinical isolate))?
**A.** E (MIC's greater than or equal to 32.0 μg/mL = E)

**Q.** And the MIC (Acinetobacter baumannii; A. baumannii clinical strain 8 (resistant clinical isolate))?
**A.** E (MIC's greater than or equal to 32.0 μg/mL = E)

**Q.** And the MIC (Acinetobacter baumannii; A. baumannii clinical strain 9 (resistant clinical isolate))?
**A.** E (MIC's greater than or equal to 32.0 μg/mL = E)

**Q.** What about the MIC (Acinetobacter baumannii; A. baumannii clinical strain 10 (resistant clinical isolate)) of the same substance?
**A.** E (MIC's greater than or equal to 32.0 μg/mL = E)

**Q.** And the MIC (Acinetobacter baumannii; A. baumannii clinical strain 11 (resistant clinical isolate))?
**A.** E (MIC's greater than or equal to 32.0 μg/mL = E)

**Q.** And the MIC (Acinetobacter baumannii; A. baumannii clinical strain 12 (resistant clinical isolate))?
**A.** E (MIC's greater than or equal to 32.0 μg/mL = E)

**Q.** What about the MIC (Acinetobacter baumannii; A. baumannii clinical strain 13 (resistant clinical isolate)) of the same substance?
**A.** A (MIC's of 1.0 μg/mL or less = A)

**Q.** And the MIC (Acinetobacter baumannii; A. baumannii clinical strain 14 (resistant clinical isolate))?
**A.** B (MIC's of greater than 1.0 μg/mL and lower than 8 μg/mL = B)

**Q.** What about the MIC (Acinetobacter baumannii; A. baumannii clinical strain 15 (resistant clinical isolate)) of the same substance?
**A.** A (MIC's of 1.0 μg/mL or less = A)

**Q.** What about the MIC (Acinetobacter baumannii; A. baumannii clinical strain 16 (resistant clinical isolate)) of the same substance?
**A.** B (MIC's of greater than 1.0 μg/mL and lower than 8 μg/mL = B)

**Q.** And the MIC (Acinetobacter baumannii; A. baumannii clinical strain 17 (resistant clinical isolate))?
**A.** E (MIC's greater than or equal to 32.0 μg/mL = E)

**Q.** What about the MIC (Acinetobacter baumannii; A. baumannii clinical strain 18 (resistant clinical isolate)) of the same substance?
**A.** E (MIC's greater than or equal to 32.0 μg/mL = E)

**Q.** What about the MIC (Acinetobacter baumannii; A. baumannii clinical strain 19 (resistant clinical isolate)) of the same substance?
**A.** B (MIC's of greater than 1.0 μg/mL and lower than 8 μg/mL = B)

**Q.** And the MIC (Acinetobacter baumannii; A. baumannii clinical strain 20 (resistant clinical isolate))?
**A.** C (MIC's greater than or equal to 8 μg/mL and lower than 16.0 μg/mL = C)

**Q.** And the MIC (Acinetobacter baumannii; A. baumannii clinical strain 21 (resistant clinical isolate))?
**A.** E (MIC's greater than or equal to 32.0 μg/mL = E)

**Q.** And the MIC (Acinetobacter baumannii; A. baumannii clinical strain 22 (resistant clinical isolate))?
**A.** E (MIC's greater than or equal to 32.0 μg/mL = E)

**Q.** And the MIC (Acinetobacter baumannii; A. baumannii clinical strain 23 (resistant clinical isolate))?
**A.** E (MIC's greater than or equal to 32.0 μg/mL = E)

**Q.** And the MIC (Acinetobacter baumannii; A. baumannii clinical strain 24 (resistant clinical isolate))?
**A.** E (MIC's greater than or equal to 32.0 μg/mL = E)

**Q.** And the MIC (Acinetobacter baumannii; A. baumannii strain 25 (susceptible))?
**A.** A (MIC's of 1.0 μg/mL or less = A)

**Q.** What about the MIC (Acinetobacter baumannii; A. baumannii strain 26 (susceptible)) of the same substance?
**A.** A (MIC's of 1.0 μg/mL or less = A)

**Q.** And the MIC (Acinetobacter baumannii; A. baumannii strain 27 (susceptible))?
**A.** A (MIC's of 1.0 μg/mL or less = A)

**Q.** And the MIC (Acinetobacter baumannii; A. baumannii strain 28 (susceptible))?
**A.** A (MIC's of 1.0 μg/mL or less = A)

**Q.** What about the MIC (Acinetobacter baumannii; A. baumannii strain 29 (susceptible)) of the same substance?
**A.** A (MIC's of 1.0 μg/mL or less = A)

**Q.** And the mortality and morbidity ([1]; 100 mg/kg/day subcutaneous)?
**A.** resulted in mortality and morbidity at 100 mg/kg/day due to nephrotoxicity

**Q.** And the “macroscopic and microscopic changes in the kidneys” value ([1]; all dose levels (10, 30 or 100 mg/kg/day) subcutaneous)?
**A.** observed at all dose levels

**Q.** What about the MIC (Pseudomonas aeruginosa; P. aeruginosa clinical strain 1 (resistant clinical isolate)) of the same substance?
**A.** D (MIC's greater than or equal to 16.0 μg/mL and lower than 32 μg/mL = D)

**Q.** What about the MIC (Pseudomonas aeruginosa; P. aeruginosa clinical strain 2 (resistant clinical isolate)) of the same substance?
**A.** E (MIC's greater than or equal to 32.0 μg/mL = E)

**Q.** And the MIC (Pseudomonas aeruginosa; P. aeruginosa clinical strain 3 (resistant clinical isolate))?
**A.** E (MIC's greater than or equal to 32.0 μg/mL = E)

**Q.** What about the MIC (Pseudomonas aeruginosa; P. aeruginosa clinical strain 4 (resistant clinical isolate)) of the same substance?
**A.** E (MIC's greater than or equal to 32.0 μg/mL = E)

**Q.** And the MIC (Pseudomonas aeruginosa; P. aeruginosa clinical strain 5 (resistant clinical isolate))?
**A.** E (MIC's greater than or equal to 32.0 μg/mL = E)

**Q.** And the MIC (Pseudomonas aeruginosa; P. aeruginosa clinical strain 6 (resistant clinical isolate))?
**A.** E (MIC's greater than or equal to 32.0 μg/mL = E)

**Q.** What about the MIC (Pseudomonas aeruginosa; P. aeruginosa clinical strain 7 (resistant clinical isolate)) of the same substance?
**A.** E (MIC's greater than or equal to 32.0 μg/mL = E)

**Q.** And the MIC (Pseudomonas aeruginosa; P. aeruginosa clinical strain 8 (resistant clinical isolate))?
**A.** E (MIC's greater than or equal to 32.0 μg/mL = E)

**Q.** And the MIC (Pseudomonas aeruginosa; P. aeruginosa clinical strain 9 (resistant clinical isolate))?
**A.** E (MIC's greater than or equal to 32.0 μg/mL = E)

**Q.** What about the MIC (Pseudomonas aeruginosa; P. aeruginosa clinical strain 10 (resistant clinical isolate)) of the same substance?
**A.** E (MIC's greater than or equal to 32.0 μg/mL = E)

**Q.** What about the MIC (Pseudomonas aeruginosa; P. aeruginosa clinical strain 11 (resistant clinical isolate)) of the same substance?
**A.** D (MIC's greater than or equal to 16.0 μg/mL and lower than 32 μg/mL = D)

**Q.** And the MIC (Pseudomonas aeruginosa; P. aeruginosa clinical strain 12 (resistant clinical isolate))?
**A.** E (MIC's greater than or equal to 32.0 μg/mL = E)

**Q.** What about the MIC (Pseudomonas aeruginosa; P. aeruginosa clinical strain 13 (resistant clinical isolate)) of the same substance?
**A.** E (MIC's greater than or equal to 32.0 μg/mL = E)

**Q.** What about the MIC (Pseudomonas aeruginosa; P. aeruginosa clinical strain 14 (resistant clinical isolate)) of the same substance?
**A.** E (MIC's greater than or equal to 32.0 μg/mL = E)

**Q.** What about the MIC (Pseudomonas aeruginosa; P. aeruginosa clinical strain 15 (resistant clinical isolate)) of the same substance?
**A.** E (MIC's greater than or equal to 32.0 μg/mL = E)

**Q.** What about the MIC (Pseudomonas aeruginosa; P. aeruginosa clinical strain 16 (resistant clinical isolate)) of the same substance?
**A.** E (MIC's greater than or equal to 32.0 μg/mL = E)

**Q.** What about the MIC (Pseudomonas aeruginosa; P. aeruginosa clinical strain 17 (resistant clinical isolate)) of the same substance?
**A.** E (MIC's greater than or equal to 32.0 μg/mL = E)

**Q.** What about the MIC (Pseudomonas aeruginosa; P. aeruginosa clinical strain 18 (resistant clinical isolate)) of the same substance?
**A.** E (MIC's greater than or equal to 32.0 μg/mL = E)

**Q.** And the MIC (Pseudomonas aeruginosa; P. aeruginosa clinical strain 19 (resistant clinical isolate))?
**A.** E (MIC's greater than or equal to 32.0 μg/mL = E)

**Q.** What about the MIC (Pseudomonas aeruginosa; P. aeruginosa clinical strain 20 (resistant clinical isolate)) of the same substance?
**A.** C (MIC's greater than or equal to 8 μg/mL and lower than 16.0 μg/mL = C)

**Q.** What about the MIC (Pseudomonas aeruginosa; P. aeruginosa clinical strain 21 (resistant clinical isolate)) of the same substance?
**A.** C (MIC's greater than or equal to 8 μg/mL and lower than 16.0 μg/mL = C)

**Q.** What about the MIC (Pseudomonas aeruginosa; P. aeruginosa clinical strain 22 (resistant clinical isolate)) of the same substance?
**A.** B (MIC's of greater than 1.0 μg/mL and lower than 8 μg/mL = B)

**Q.** And the MIC (Pseudomonas aeruginosa; P. aeruginosa strain 23 (susceptible))?
**A.** A (MIC's of 1.0 μg/mL or less = A)

**Q.** And the MIC (Pseudomonas aeruginosa; P. aeruginosa strain 24 (susceptible))?
**A.** B (MIC's of greater than 1.0 μg/mL and lower than 8 μg/mL = B)

**Q.** And the MIC (Pseudomonas aeruginosa; P. aeruginosa strain 25 (susceptible))?
**A.** A (MIC's of 1.0 μg/mL or less = A)

**Q.** And the MIC (Pseudomonas aeruginosa; P. aeruginosa strain 26 (susceptible))?
**A.** A (MIC's of 1.0 μg/mL or less = A)

**Q.** What about the MIC (Pseudomonas aeruginosa; P. aeruginosa strain 27 (susceptible)) of the same substance?
**A.** A (MIC's of 1.0 μg/mL or less = A)
